Earlier results in patent publication US6589744B2, “Method and kit for identification for nucleic acid modification enzymes and inhibitors thereof” (Syngenta Participations AG, priority 2001, dated 2003).

Biological target: T1, T4 DNA ligase (Enterobacteria phage T4, UniProt P00970)
T1 sequence (P00970 1-487): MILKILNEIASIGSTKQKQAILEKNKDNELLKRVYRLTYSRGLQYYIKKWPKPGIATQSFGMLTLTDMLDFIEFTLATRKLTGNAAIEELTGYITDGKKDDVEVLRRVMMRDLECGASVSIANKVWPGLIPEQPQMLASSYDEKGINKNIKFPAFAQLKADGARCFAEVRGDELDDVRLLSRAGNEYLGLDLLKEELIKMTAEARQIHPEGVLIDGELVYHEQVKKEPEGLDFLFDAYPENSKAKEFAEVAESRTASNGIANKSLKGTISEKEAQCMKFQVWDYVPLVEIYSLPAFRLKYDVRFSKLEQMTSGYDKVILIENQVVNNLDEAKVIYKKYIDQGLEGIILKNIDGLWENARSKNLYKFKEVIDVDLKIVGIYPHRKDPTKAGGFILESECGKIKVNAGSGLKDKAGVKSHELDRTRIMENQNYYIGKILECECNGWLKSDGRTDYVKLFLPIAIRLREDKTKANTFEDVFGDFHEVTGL
Settings: previously determined, radiolabeled substrates and PAGE gel shift assays (Montecucco et al.)

SMILES: COc1cccc2c1C(=O)c1c(O)c3c(c(O)c1C2=O)C[C@@](O)(C(=O)CO)C[C@@H]3O[C@H]1C[C@H](N)[C@@H](O)[C@H](C)O1 [Epirubicin, epirubicin]
- IC50: 2700 nM
